Experimental data reported in patent US6462043B1 (dated 2002).

melting point [°C] | SMILES
70 to 72 | CCCOCCCN1CN(C)/C(=N/[N+](=O)[O-])N(Cc2ccc(Cl)nc2)C1
173 to 174 | CN/C(=N/[N+](=O)[O-])NCc1cnc(Cl)c(Cl)c1
